Source: PubChem BioAssay AID2060905 (Molecular Pharmacology Branch, DTP, NCI, 2025)
pIC50: −log10 of the molar value.

System: 282377-053-R-J1-PDC complex spheroid viability
Test: Anticancer human tumor 282377-053-R-J1-PDC patient-derived colon adenocarcinoma cell line growth inhibition [RAS]
Details: for pIC50: curve of first compound; for viability, T/C: stronger effect = lower value
Outline: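 Multi-cell-type spheroids: tumor cells plus HUVEC endothelial cells and mesenchymal stem cells. RAS-pathway inhibitors were combined with targeted agents, each dosed in half-log steps down from clinical Cmax, or from 10 microM when Cmax was unknown.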
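Further: spheroids exposed to agents for seven days before readout.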
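Wherever viability, T/C is given: luminescence viability as percent of DMSO vehicle control wells.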

CCc1c2c(nc3ccc(O)cc13)-c1cc3c(c(=O)n1C2)COC(=O)[C@]3(O)CC + C=CC(=O)N1CCN(c2nc(OCC3CCCN3C)nc3c(F)c(-c4nc(N)cc(C)c4C(F)(F)F)c(Cl)cc23)C(C)C1
pIC50 (second compound 0.00316 µM): < 6.52 | pIC50 (second compound 0.01 µM): < 6.52 | pIC50 (second compound 0.0316 µM): < 6.52 | pIC50 (second compound 0.1 µM): < 6.52 | pIC50 (second compound 0.316 µM): < 6.52 | pIC50 (second compound 1 µM): < 6.52 | viability, T/C (second compound 0.00316 µM, first compound 0.000949 µM): 117% | viability, T/C (second compound 0.00316 µM, first compound 0.003 µM): 122% | viability, T/C (second compound 0.00316 µM, first compound 0.00949 µM): 122% | viability, T/C (second compound 0.00316 µM, first compound 0.03 µM): 99.6% | viability, T/C (second compound 0.00316 µM, first compound 0.0949 µM): 87.7% | viability, T/C (second compound 0.00316 µM, first compound 0.3 µM): 59% | viability, T/C (second compound 0.01 µM, first compound 0.000949 µM): 109% | viability, T/C (second compound 0.01 µM, first compound 0.003 µM): 119% | viability, T/C (second compound 0.01 µM, first compound 0.00949 µM): 95.1% | viability, T/C (second compound 0.01 µM, first compound 0.03 µM): 93.9% | viability, T/C (second compound 0.01 µM, first compound 0.0949 µM): 79.4% | viability, T/C (second compound 0.01 µM, first compound 0.3 µM): 66.1% | viability, T/C (second compound 0.0316 µM, first compound 0.000949 µM): 99.2% | viability, T/C (second compound 0.0316 µM, first compound 0.003 µM): 109% | viability, T/C (second compound 0.0316 µM, first compound 0.00949 µM): 113% | viability, T/C (second compound 0.0316 µM, first compound 0.03 µM): 93.2% | viability, T/C (second compound 0.0316 µM, first compound 0.0949 µM): 87% | viability, T/C (second compound 0.0316 µM, first compound 0.3 µM): 61.7% | viability, T/C (second compound 0.1 µM, first compound 0.000949 µM): 115% | viability, T/C (second compound 0.1 µM, first compound 0.003 µM): 126% | viability, T/C (second compound 0.1 µM, first compound 0.00949 µM): 124% | viability, T/C (second compound 0.1 µM, first compound 0.03 µM): 85.8% | viability, T/C (second compound 0.1 µM, first compound 0.0949 µM): 97.8% | viability, T/C (second compound 0.1 µM, first compound 0.3 µM): 65.1% | viability, T/C (second compound 0.316 µM, first compound 0.000949 µM): 128% | viability, T/C (second compound 0.316 µM, first compound 0.003 µM): 114% | viability, T/C (second compound 0.316 µM, first compound 0.00949 µM): 123% | viability, T/C (second compound 0.316 µM, first compound 0.03 µM): 98.6% | viability, T/C (second compound 0.316 µM, first compound 0.0949 µM): 89.7% | viability, T/C (second compound 0.316 µM, first compound 0.3 µM): 64.2% | viability, T/C (second compound 1 µM, first compound 0.000949 µM): 135% | viability, T/C (second compound 1 µM, first compound 0.003 µM): 126% | viability, T/C (second compound 1 µM, first compound 0.00949 µM): 106% | viability, T/C (second compound 1 µM, first compound 0.03 µM): 94.2% | viability, T/C (second compound 1 µM, first compound 0.0949 µM): 95.2% | viability, T/C (second compound 1 µM, first compound 0.3 µM): 61.2%

C=CC(=O)Nc1cc(Nc2nccc(-c3cn(C)c4ccccc34)n2)c(OC)cc1N(C)CCN(C)C + C=CC(=O)N1CCN(c2nc(OCC3CCCN3C)nc3c(F)c(-c4nc(N)cc(C)c4C(F)(F)F)c(Cl)cc23)C(C)C1
pIC50 (second compound 0.00316 µM): < 6.00 | pIC50 (second compound 0.01 µM): < 6.00 | pIC50 (second compound 0.0316 µM): < 6.00 | pIC50 (second compound 0.1 µM): < 6.00 | pIC50 (second compound 0.316 µM): < 6.00 | pIC50 (second compound 1 µM): < 6.00 | viability, T/C (second compound 0.00316 µM, first compound 0.00316 µM): 126% | viability, T/C (second compound 0.00316 µM, first compound 0.01 µM): 113% | viability, T/C (second compound 0.00316 µM, first compound 0.0316 µM): 124% | viability, T/C (second compound 0.00316 µM, first compound 0.1 µM): 102% | viability, T/C (second compound 0.00316 µM, first compound 0.316 µM): 112% | viability, T/C (second compound 0.00316 µM, first compound 1 µM): 114% | viability, T/C (second compound 0.01 µM, first compound 0.00316 µM): 123% | viability, T/C (second compound 0.01 µM, first compound 0.01 µM): 111% | viability, T/C (second compound 0.01 µM, first compound 0.0316 µM): 100% | viability, T/C (second compound 0.01 µM, first compound 0.1 µM): 106% | viability, T/C (second compound 0.01 µM, first compound 0.316 µM): 109% | viability, T/C (second compound 0.01 µM, first compound 1 µM): 100% | viability, T/C (second compound 0.0316 µM, first compound 0.00316 µM): 112% | viability, T/C (second compound 0.0316 µM, first compound 0.01 µM): 112% | viability, T/C (second compound 0.0316 µM, first compound 0.0316 µM): 100% | viability, T/C (second compound 0.0316 µM, first compound 0.1 µM): 124% | viability, T/C (second compound 0.0316 µM, first compound 0.316 µM): 114% | viability, T/C (second compound 0.0316 µM, first compound 1 µM): 96.3% | viability, T/C (second compound 0.1 µM, first compound 0.00316 µM): 118% | viability, T/C (second compound 0.1 µM, first compound 0.01 µM): 107% | viability, T/C (second compound 0.1 µM, first compound 0.0316 µM): 136% | viability, T/C (second compound 0.1 µM, first compound 0.1 µM): 113% | viability, T/C (second compound 0.1 µM, first compound 0.316 µM): 94.7% | viability, T/C (second compound 0.1 µM, first compound 1 µM): 120% | viability, T/C (second compound 0.316 µM, first compound 0.00316 µM): 122% | viability, T/C (second compound 0.316 µM, first compound 0.01 µM): 107% | viability, T/C (second compound 0.316 µM, first compound 0.0316 µM): 110% | viability, T/C (second compound 0.316 µM, first compound 0.1 µM): 105% | viability, T/C (second compound 0.316 µM, first compound 0.316 µM): 121% | viability, T/C (second compound 0.316 µM, first compound 1 µM): 122% | viability, T/C (second compound 1 µM, first compound 0.00316 µM): 139% | viability, T/C (second compound 1 µM, first compound 0.01 µM): 116% | viability, T/C (second compound 1 µM, first compound 0.0316 µM): 114% | viability, T/C (second compound 1 µM, first compound 0.1 µM): 118% | viability, T/C (second compound 1 µM, first compound 0.316 µM): 121% | viability, T/C (second compound 1 µM, first compound 1 µM): 137%
